Data on 6 molecules can be found in patent US11873486B2, “Modulating dsRNA editing, sensing, and metabolism to increase tumor immunity and improve the efficacy of cancer immunotherapy and/or modulators of intratumoral interferon” (Dana-Farber Cancer Institute, Inc., priority 2017, dated 2024).

In data set [1] the test system is A549 ADAR1 knockout cells. Kind of data set: Immunoblot of interferon regulated genes in ADAR1 knockout cell lines. It is filed as cell-based, human. Particulars: 500 nM. How it is done:
(§1) Cells were lysed in RIPA lysis buffer (Thermo Scientific) supplemented with 1× protease and phosphatase inhibitor cocktails (Roche). Protein extracts were analyzed by standard immunoblotting with the following antibodies: ADAR1 (D7E2M), MDA5 (D74E4), RIG-I (D14G6), ISG15 (22D2), USP18 (D4E7), PKR (#3072), STING (D2P2F), cGAS (D1D3G), IRF9 (D2T8M), PD-L1 (E1L3N), P-IRF3 Ser396 (4D4G), IRF3 (D6I4C), P-TBK1 Ser172 (D52C2), TBK1 (D1B4), P-EIF2α Ser51 (#9721), and EIF2α (D7D3) from Cell Signaling; P-PKR Thr446 (ab32036) from Abcam; R-actin C4 (sc-47778) from Santa Cruz. All antibodies were used at a dilution of 1:1000 except R-actin which was used at 1:4000). The following secondary antibodies were used at 1:5000 dilution: Goat anti-Rabbit IRDye 800CW (LI-COR, 926-32211) and Goat anti-Mouse IRDye […] (LI-COR, 926-68020). All immunoblots were imaged using the LI-COR digital imaging system and ImageJ.

Data set [2] deals with ADAR1 knockout A549 cells. Kind of data set: Viability of ADAR1 knockout A549 cells with interferon or drug treatment. It is filed as cell-based, human. How it is done:
For drug treatment assays, cells were plated at a density of 3000 cells per well in a 96-well assay plate. The following day, cells were treated with ruxolitinib (INCB018424) from Selleck Chemicals; MRT67307 hydrocloride (SML0702) from Sigma-Aldrich; human interferon-alphal (#8927) from Cell Signaling; recombinant human IFN-beta 1a (mammalian) protein (114151) and recombinant human IFN-gamma protein (285-IF-100) from R&D Systems. For preincubation drug treatment experiments, cells were plated in the presence of ruxolitinib and were treated with interferon-0 and ruxolitinib the following day. Control wells were treated with dimethylsulfoxide (DMSO). Cell viability was assayed 3 or 6 days after drug treatment with CellTiter-Glo® Luminescent Cell Viability Assay kit (Promega). Viability was normalized to DMSO controls.
for interferon treatment assays, cells were plated at a low density of 3000 cells per well in a 96-well assay plate. The following day, cells were treated with human interferon-alpha 1 (Cell Signaling, #8927) or recombinant human IFN-beta 1a (mammalian) protein (PBL Assay Science, 114151). Control wells were treated with water. Cell viability was assayed 3 or 6 days after drug treatment with CellTiter-Glo© Luminescent Cell Viability Assay kit (Promega). Viability was normalized to controls. Apoptosis was assayed 3 days after interferon treatment with Caspase-Glo®3/7 Assay kit (Promega). Dose curves were obtained using least-squares nonlinear regression on a standard four-parameter logistic model using GraphPad Prism.

The test system of data set [3] is HCC366, NCI-H1650 and NCI-H196 cell lines. The experiment in a line: Cell viability after CRISPR-Cas9 knockout of ADAR1 (CellTiter-Glo). The format is cell-based, human. As to conditions: 6 days after CRISPR-Cas9 knockout of ADAR1. An excerpt:
(§2) guide RNA sequences were designed using the sgRNA designer tool on The RNAi Consortium (TRC) portal (available on the World Wide Web at portals.broadinstitute.org/gpp/public/analysis-tools/sgrnadesign). […] Guide sequences were cloned into the Cas9 expressing lentiviral vector CRISPRv2 (available on the World Wide Web at genomeengineering.org/crispr). For virus production, each CRISPRv2 vector and packaging vectors were introduced into 293T cells via calcium phosphate transfection (Clontech). Lentivirus was harvested in RPMI media supplemented with 10% FBS and filtered before addition to each cancer cell line. Infected cells were selected in 2 μg/ml puromycin or 10 μg/ml blasticidin for 7 days. Following this, protein lysates were harvested or cells were plated for proliferation assays in 96 well plates and grown in the presence of RPMI containing 10% FBS and 1 μg/ml puromycin or 5 μg/ml blasticidin. Immunoblotting confirmed decreased protein levels of each gene across the pool of infected cells. For cell viability experiments, cells were plated at a density of 3000 cells per well in a 96-well assay plate. Cell viability was assayed 3 and 6 days later with the CellTiter-Glo® Luminescent Cell Viability Assay kit (Promega). […]
(In general: Cellular ATP, detected with luciferase, serves as a proxy for viable cell number.)

The subject of a further data set is ADAR1. The experiment in a line: Immunoblot of ADAR1 after CRISPR-Cas9 knockout. It is filed as cell-based, human. Particulars: A549 cells. How it is done: as §1
guide RNA sequences were designed using the sgRNA designer tool on The RNAi Consortium (TRC) portal (available on the World Wide Web at portals.broadinstitute.org/gpp/public/analysis-tools/sgrnadesign). […] Guide sequences were cloned into the Cas9 expressing lentiviral vector CRISPRv2 (available on the World Wide Web at genomeengineering.org/crispr). For virus production, each CRISPRv2 vector and packaging vectors were introduced into 293T cells via calcium phosphate transfection (Clontech). […]
In general terms: A western blot detects proteins with antibodies after separation by electrophoresis.

In another data set the test system is A549 cells. The experiment in a line: Cell viability after CRISPR-Cas9 knockout of ADAR1, control cells. It is filed as cell-based, human. As to conditions: 6 days after CRISPR-Cas9 knockout of ADAR1.
Description: as §2

A further data set relates to ADAR. Kind of data set: Western blot of ADAR isoforms in B16 cells. It is filed as cell-based, mouse. As to conditions: with or without IFNβ addition. The protocol:
Whole cell lysates were prepared in lysis buffer (60 mM Tris HC, 2% SDS, 10% glycerol, complete EDTA-free protease-inhibitor (Roche, Basel, Switzerland), and 500 U/mL benzonase nuclease (Novagen, Merck, Darmstadt, Germany)). Samples were boiled at 100° C. and clarified by centrifugation. Protein concentration was measured with a BCA protein assay kit (Pierce, Dallas, Texas). Fifty to one hundred and fifty micrograms of protein was loaded on 4-12% Bolt® Bis-Tris Plus gels (Life Technologies, Carlsbad, CA) in MES buffer (Life Technologies). Protein was transferred to 0.45 μm nitrocellulose membranes (Bio-Rad, Hercules, CA). Membranes were blocked in Tris-buffered saline plus 0.1% Tween 20 (TBS-T) containing 5% non-fat dry milk for 1 hour at room temperature followed by overnight incubation with primary antibody at 4° C. Membranes were washed with TBS-T and incubated with HRP-conjugated secondary antibodies for 1 hour at room temperature. […] Blots were then analyzed using ImageJ and Adobe® Photoshop® software. […]
Whole cell lysates were prepared in lysis buffer (60 mM Tris HCl, 2% SDS, 10% glycerol, complete EDTA-free protease-inhibitor (Roche), and 500 U/mL benzonase nuclease (Novagen)). […] Protein concentration was measured with a BCA protein assay kit (Pierce). […] Blots were then analyzed using ImageJ and Adobe Photoshop software. […]

Data set [4] deals with B16 tumor cells. Kind of data set: In vitro cytokine stimulation and growth inhibition assay. As to conditions: Adar-deficient versus control B16 tumor cells, 72 hours. It is filed as cell-based, mouse. The protocol:
(§3) FIG. 9 includes 3 panels, identified as panels A, B, and C, which provide exemplary mechanisms of ADAR-induced sensitivity to checkpoint blockade. […] A certain number of B16 tumor cells (50 k; Adar null or control) were stimulated in vitro with cytokine for 72 hours and the cell numbers were then counted. […] A certain number of B16 tumor cells (50 k; Adar null or control) were stimulated with cytokine in vitro, washed to remove cytokine (for IFNβ), and evaluated via IFNβ ELISA. […] A certain number of B16 tumor cells (50 k; Adar null or control) were stimulated in vitro with cytokine for 72 hours and stained for Class I MHC and PD-L1.
Tumor cells were engineered as noted above and plated in DMEM+10% FBS containing the indicated combinations of cytokines: IFN (1,000 U/ml, PBL), IFN (100 ng/ml, Cell Signaling Technologies), TNF (10 ng/ml, PreproTech). For rescue/re-expression experiments, 10,000 cells were plated in 96-well plates and viable cells were enumerated after 72 hours using Cell Titer-Glo® (Promega, G7570). For all other growth inhibition assays, 50,000 cells were plated in 12-well plates and viable cells were counted after 72 hours using the Countess automated cell counting system (Thermo Fisher Scientific, C10227).

For data set [5], the system named is B16 tumor cells. The experiment in a line: IFNβ ELISA of tumor cell supernatant. It is filed as cell-based, mouse. Particulars: Adar-deficient B16 tumor cells. The protocol: as §3
Cells were seeded at a density of 10,000 cells per well in a 96-well plate. Mouse interferon beta (pbl assay science) was then added. After 24 hrs of incubation at 37° C., the supernatant was aspirated from the wells to remove the mouse interferon beta. The wells were then gently washed once with media. Fresh warm media was then replaced in the wells. After 48 hrs of incubation at 37° C., the supernatant was collected, and the concentration of interferon beta was determined using The VeriKine Mouse Interferon Beta ELISA Kit (pbl assay science).
(In general: ELISA stands for enzyme-linked immunosorbent assay.)

“Also recorded” adds a separate entry of the source.

For `Nc1ncn([C@@H]2O[C@H](CO)[C@@H](O)[C@H]2O)c(=O)n1` [azacitidine, 5-azacytidine], in data set [1], the “expression of MDA5” value was “induced expression of interferon regulated gene MDA5” and the “phosphorylation of EIF2α” value is recorded as “increased phosphorylation of EIF2α”. The “sensitization to ADAR1 knockout” value in data set [2] was “sensitized A549 cells to ADAR1 knockout”.
As for “AGATAGCCATGCTGAGCCAC (chemistry not fully specified) [ADAR1 sg2]”, the viability result in data set [3] is reported as “decreased viability”; with A549 cells, “no effect on control cells”. Besides, in the data set with ADAR1, the “ADAR1 protein (immunoblot)” value is “knockout of ADAR1 isoforms p150 and p110”.
For “CACCGTCTACAGCCCTACCTTGCCA (antisense AAACTGGCAAGGTAGGGCTGTAGAC; listed as DNA, chemistry not fully specified) [Mouse Adar sgRNA 2, P110 and P150]”, the “depletion of ADAR isoforms (Western blot)” value in the data set on ADAR is “effectively depleted both isoforms”.
Same read-out and setting: in the case of “CACCGTCTGGATTCACAACTCCAGG (antisense AAACCCTGGAGTTGTGAATCCAGAC; listed as DNA, chemistry not fully specified) [Mouse Adar sgRNA1, P150 only]” it was “effectively depleted the P150 isoform of ADAR, but not the P110 isoform of ADAR”.
As for “GTGCATACACTCAAGCAGTG (chemistry not fully specified) [ADAR1 sg1]”, the values for the viability entry (in data set [3]; in the data set on A549 cells) were “decreased viability” and “no effect on control cells”, respectively. Moreover, in the data set with ADAR1, the “ADAR1 protein (immunoblot)” value was “knockout of ADAR1 isoforms p150 and p110”.

B1: IFNβ: mouse interferon beta (1000 U/mL, PBL) used on B16 cells (protein, UniProt P01575 22-182, looked up)
Interferon beta: INYKQLQLQERTNIRKCQELLEQLNGKINLTYRADFKIPMEMTEKMQKSYTAFAIQEMLQNVFLVFRNNFSSTGWNETIVVRLLDELHQQTVFLKTVLEEKQEERLTWEMSSTALHLKSYYWRVQRYLKLMKYNSYAWMVVRAEIFRNFLIIRRLTRNFQN
Regarding B1, the cytokine-induced growth arrest result with B16 tumor cells [4] is “increases IFNβ and IFNγ-induced growth arrest; also recorded: increases susceptibility to IFNβ and IFNγ”. Besides, the “IFNβ secretion after interferon stimulation” value with B16 tumor cells [5] was “make IFNβ when stimulated with IFNβ”.
